Consider three molecules from ChEMBL document CHEMBL4422670, “Ac4GlcNAcF3, an OGT-tolerated but OGA-resistant regulator for O-GlcNAcylation” (Bioorg Med Chem Lett, 2019).

Calls of active or inactive are those of the source. The calls are words filed in the database; no cut-off is given here.

One data set is filed under the species Mus musculus. The data set can be described thus: Modulation of OGT/OGA in mouse NIH/3T3 cells assessed as increase in O-GlcNAcylation at 5 to 100 uM by Western blot analysis. The data set is classed as cell-based. On the technique in general: Immunoblotting shows a protein as a band on a membrane.
Data set [1] in a line: Cytotoxicity against human HepG2 cells assessed as cell viability at 50 uM after 48 hrs by MTT assay relative to control. The note with it: read-out: Activity. It counts as cell-based. In general terms: Tetrazolium dyes change colour on reduction, which living cells bring about.
Data set [2] is described as follows: Cytotoxicity against human HepG2 cells assessed as cell viability at 100 uM after 48 hrs by MTT assay relative to control. The data set is classed as cell-based. As to conditions: read-out: Activity.
Data set [3] can be described thus: Cytotoxicity against human MCF7 cells assessed as cell viability at 20 uM after 48 hrs by MTT assay relative to control. The data set is classed as cell-based. As to conditions: read-out: Activity.
The nature of data set [4]: Cytotoxicity against human HepG2 cells assessed as cell viability at 10 uM after 48 hrs by MTT assay relative to control. It counts as cell-based. The note with it: read-out: Activity.
Data set [5] in a line: Cytotoxicity against mouse NIH/3T3 cells assessed as cell viability at 50 uM after 48 hrs by MTT assay relative to control. It counts as cell-based, NIH3T3. The note with it: read-out: Activity.
Data set [6] can be described thus: Cytotoxicity against human HepG2 cells assessed as cell viability at 5 uM after 48 hrs by MTT assay relative to control. It counts as cell-based. As to conditions: read-out: Activity.
A short description of data set [7]: Cytotoxicity against human HeLa cells assessed as cell viability at 10 uM after 48 hrs by MTT assay relative to control. It counts as cell-based. As to conditions: read-out: Activity.
A short description of data set [8]: Cytotoxicity against human MCF7 cells assessed as cell viability at 100 uM after 48 hrs by MTT assay relative to control. It counts as cell-based. The note with it: read-out: Activity.
The target of data set [9] is T1, Protein O-GlcNAcase (Mus musculus) (UniProt Q9EQQ9).
T1 sequence (whole entry): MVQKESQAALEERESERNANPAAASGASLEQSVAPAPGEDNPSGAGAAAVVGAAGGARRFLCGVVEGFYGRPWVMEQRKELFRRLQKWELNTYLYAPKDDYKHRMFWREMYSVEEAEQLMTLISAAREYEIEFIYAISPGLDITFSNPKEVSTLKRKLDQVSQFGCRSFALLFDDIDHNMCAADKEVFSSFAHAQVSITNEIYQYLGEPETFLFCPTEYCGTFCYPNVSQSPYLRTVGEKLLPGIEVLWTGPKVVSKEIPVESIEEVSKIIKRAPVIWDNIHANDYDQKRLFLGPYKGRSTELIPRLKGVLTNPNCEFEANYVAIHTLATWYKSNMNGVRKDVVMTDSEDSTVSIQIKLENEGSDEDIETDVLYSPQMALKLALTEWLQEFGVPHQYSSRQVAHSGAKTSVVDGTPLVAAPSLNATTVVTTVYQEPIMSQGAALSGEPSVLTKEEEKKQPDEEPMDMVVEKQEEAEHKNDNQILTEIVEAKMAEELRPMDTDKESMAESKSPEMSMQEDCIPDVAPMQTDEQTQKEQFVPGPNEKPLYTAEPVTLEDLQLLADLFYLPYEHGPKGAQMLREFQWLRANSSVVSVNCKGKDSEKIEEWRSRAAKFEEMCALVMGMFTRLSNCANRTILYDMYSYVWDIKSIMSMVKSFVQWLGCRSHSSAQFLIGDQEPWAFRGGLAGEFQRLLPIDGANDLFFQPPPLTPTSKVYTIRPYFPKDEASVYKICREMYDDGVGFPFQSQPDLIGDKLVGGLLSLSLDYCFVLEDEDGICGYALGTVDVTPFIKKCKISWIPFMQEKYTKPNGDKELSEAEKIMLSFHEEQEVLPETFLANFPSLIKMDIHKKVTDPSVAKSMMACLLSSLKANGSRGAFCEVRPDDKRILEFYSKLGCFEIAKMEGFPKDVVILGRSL
The data set can be described thus: Inhibition of OGA in mouse NIH/3T3 cells assessed as increase in O-GlcNAcylation at 20 uM after 24 hrs by Western blot analysis. The data set is classed as cell-based.

Data set [10] is described as follows: Cytotoxicity against mouse NIH/3T3 cells assessed as cell viability at 20 uM after 48 hrs by MTT assay relative to control. It counts as cell-based, NIH3T3. As to conditions: read-out: Activity.
Data set [11] is described as follows: Cytotoxicity against human HeLa cells assessed as cell viability at 20 uM after 48 hrs by MTT assay relative to control. It counts as cell-based. The note with it: read-out: Activity.
Data set [12] is described as follows: Cytotoxicity against mouse NIH/3T3 cells assessed as cell viability at 100 uM after 48 hrs by MTT assay relative to control. It counts as cell-based, NIH3T3. The note with it: read-out: Activity.
Data set [13] is described as follows: Cytotoxicity against human MCF7 cells assessed as cell viability at 5 uM after 48 hrs by MTT assay relative to control. As to conditions: read-out: Activity. It counts as cell-based.
A short description of data set [14]: Cytotoxicity against human MCF7 cells assessed as cell viability at 10 uM after 48 hrs by MTT assay relative to control. The data set is classed as cell-based. As to conditions: read-out: Activity.
A short description of data set [15]: Cytotoxicity against mouse NIH/3T3 cells assessed as cell viability at 5 uM after 48 hrs by MTT assay relative to control. As to conditions: read-out: Activity. The data set is classed as cell-based, NIH3T3.
The nature of data set [16]: Cytotoxicity against human HepG2 cells assessed as cell viability at 20 uM after 48 hrs by MTT assay relative to control. It counts as cell-based. The note with it: read-out: Activity.
Data set [17] can be described thus: Cytotoxicity against human MCF7 cells assessed as cell viability at 50 uM after 48 hrs by MTT assay relative to control. It counts as cell-based. As to conditions: read-out: Activity.
A short description of data set [18]: Cytotoxicity against human HeLa cells assessed as cell viability at 50 uM after 48 hrs by MTT assay relative to control. The data set is classed as cell-based. As to conditions: read-out: Activity.
Data set [19] is described as follows: Cytotoxicity against human HeLa cells assessed as cell viability at 5 uM after 48 hrs by MTT assay relative to control. The note with it: read-out: Activity. The data set is classed as cell-based.
Data set [20] in a line: Cytotoxicity against mouse NIH/3T3 cells assessed as cell viability at 10 uM after 48 hrs by MTT assay relative to control. It counts as cell-based, NIH3T3. The note with it: read-out: Activity.
Data set [21] is described as follows: Cytotoxicity against human HeLa cells assessed as cell viability at 100 uM after 48 hrs by MTT assay relative to control. It counts as cell-based. The note with it: read-out: Activity.
The nature of data set [22]: Inhibition of lysosomal hexosaminidase (unknown origin). The arrangement: species or system Homo sapiens.

For `CC(=O)OC[C@H]1OC(OC(C)=O)[C@H](NC(=O)C(F)(F)F)[C@@H](OC(C)=O)[C@@H]1OC(C)=O` (stereo not given in full), the outcome in the data set filed under Mus musculus was Active. In addition, the viability at 48 h, 50 µM in data set [1] worked out at 91.2%; in [5], 61.3%; in data set [17] it was 96.4%; in data set [18], 84.1%. In addition, the viability at 48 h, 100 µM in [2] was 84.9%; in [8], 90.5%; in data set [12], 35.9%; in [21], 76.1%. The viability at 48 h, 20 µM in [3] is 97.1%; in data set [10], 85.6%; in data set [11] it was 96%; in [16] it was 94.2%. The viability at 48 h, 10 µM stood at 94.7% in data set [4], 96.2% in data set [7], 97.4% in data set [14] and 94.1% in data set [20]. Also, the viability at 48 h, 5 µM was 96.9% in data set [6], 98.3% in data set [13], 97.6% in [15] and 101% in data set [19]. Moreover, the inhibition entry in [9] is “Active”.
For the molecule `CC(=O)N[C@H]1/C(=N/OC(=O)Nc2ccccc2)O[C@H](CO)[C@@H](O)[C@@H]1O` [PUGNAC], the inhibitory constant (Ki) – broadly, a dissociation constant, usually derived from enzyme kinetics or from competition with a known ligand – in data set [22] was in the range of 30 to 40 nM. For the same molecule, the inhibition entry in data set [9] is “Active”.
With `CCNC1=N[C@@H]2[C@@H](O)[C@H](O)[C@@H](CO)O[C@@H]2S1`, the inhibition result in [9] is “Active”.
